Experimental data from patent US20240368174A1, “Antiviral Heterocyclic Compounds” (Enanta Pharmaceuticals, Inc., priority 2023, published 2024).

Tests used:
[1] = test system: genotype A, “Long” strain RSV; assay: RSV-A assay (CPE, ATPlite readout in Hep-2 cells); format: cell-based, Human respiratory syncytial virus; conditions: human respiratory syncytial virus, activity class
Description: Hep-2 cells, (originally derived from tumors grown in irradiated-cortisonised weanling rats that had been injected with epidermoid carcinoma tissue from the larynx of a person, but later found to be indistinguishable from HeLa cells by PCR DNA analysis), were used for the culturing of genotype A, “Long” strain RSV. Flasks were inoculated with RSV and viral stocks were collected once cytopathic effect (CPE) was greater than 90%. Viral stocks in 25% sucrose media were snap frozen using liquid nitrogen to increase viral stability. Viral stock titers were quantified by tissue culture infectious dose 50% (TCID50) using 8,000 cells per well and 3-fold viral dilutions across a 96-well plate, cultured for 4 days. Viral stock titers were also quantified by a plaque forming unit assay, as described elsewhere.
Following extensive parameter testing, the final assay is run as follows: Hep-2 cells are seeded into the inner 60 wells of a 96-well plate at 8,000 cells per well in a volume of 50 μL using Growth Media (DMEM without phenol red, 1% L-Glut, 1% Penn/Strep, 1% nonessential amino acids, 10% heat-inactivated FBS). 2-fold serial dilutions of control and test compounds are added to the wells in duplicate in a total volume of 25 μL. Viral stock is then added to the wells at a multiplicity of infection (MOI) of 0.1 in a volume of 25 μL, bringing the total volume of each well to 100 μL. The MOI is calculated using the PFU/mL, or TCID50 if unavailable. Each 96-well plate has a control column of 6 wells with cells and virus but no compound (negative control, max CPE), a column with cells but no compound or virus (positive control, minimum CPE), and a column with no cells or virus or compound (background plate/reagent control). The control wells with cells but no virus are given an additional 25 μL of growth media containing an equal quantity of sucrose as those wells receiving the viral stock in order to keep consistent in media and volume conditions. The outer wells of the plate are filled with 125 μL of moat media (DMEM, 1% Penn/Strep) to act as a thermal and evaporative moat around the test wells. Following a 5-day incubation period, the plates are read using ATPlite (50 uL added per well), which quantifies the amount of ATP (a measure of cell health) present in each well. Assay plates are read using the Envision luminometer. […] EC50 ranges are as follows: A<0.2 μM; B>0.2 μM.

[2] = test system: HMPV clinical isolate A2 strain TN 94-49; assay: HMPV antiviral assay, Method 2 (LLC-MK2 cells with CP-100-356, ATP-Lite); format: cell-based; conditions: human metapneumovirus; hMPV A2 TN/94-49, LLC-MK2 cells with CP-100-356, Method 2
Procedure, shortened: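 LLC-MK2 rhesus kidney cells (5,000/well) infected in suspension with HMPV A2 TN 94-49 at MOI 0.16, in serum-free medium with final 2 μg/mL TPCK-trypsin and 2 μM CP-100-356. Compounds tested in duplicate from 200 nM, 2.5-fold, 10 points; 7 days at 37 °C. Cell health by ATP-Lite luminescence; EC50 by four-parameter fit.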

EC50 [1]	EC50 [2]	Structure (SMILES)
< 200 nM	> 200 nM	C[C@]1(C(N)=O)COc2c1cc([C@@](O)(CNC(=O)c1cc(Cl)c3nn(C(F)F)cc3c1)c1ccccc1)nc2-c1cc(Cl)c(F)cc1F [Example 102]
< 200 nM	< 200 nM	COc1cc(C(=O)NC[C@](O)(c2cc3c(c(-c4ccc5c(c4Cl)OC(F)(F)O5)n2)OC[C@]3(C)C(N)=O)C2CC2)cc2cc(Cl)cnc12 [Example 105]
< 200 nM	< 200 nM	C[C@]1(C(N)=O)COc2c1cc([C@@](O)(CNC(=O)c1cc(OC3CC3)c3ncc(Cl)cc3c1)C1CC1)nc2-c1ccc2c(c1Cl)OC(F)(F)O2 [Example 106]
< 200 nM	< 200 nM	COc1cc(C(=O)NC[C@](O)(c2cc3c(c(-c4ccc5c(c4)OC(F)(F)O5)n2)OC[C@]3(C)C(N)=O)C2CC2)cc2cc(Cl)cnc12 [Example 107]
< 200 nM	< 200 nM	C[C@]1(C(N)=O)COc2c1cc([C@@](O)(CNC(=O)c1cc(OC3CC3)c3ncc(Cl)cc3c1)C1CC1)nc2-c1ccc2c(c1)OC(F)(F)O2 [Example 108]
< 200 nM	> 200 nM	COc1cc(C(=O)NC[C@](O)(c2cc3c(c(-c4ccc(F)c(Cl)c4)n2)OC[C@]3(C)C(N)=O)C2CC2)cc2oc(C3CC3)nc12 [Example 111]
< 200 nM	< 200 nM	COc1cc(C(=O)NC[C@](O)(c2cc3c(c(-c4cc(F)c(F)cc4F)n2)OC[C@]3(C)C(N)=O)C2CC2)cc2cc(Cl)nnc12 [Example 114]
< 200 nM	< 200 nM	COc1cc(C(=O)NC[C@](O)(c2cc3c(c(-c4cc(F)c(F)cc4F)n2)OC[C@]3(C)C(N)=O)C2CC2)cn2cc(C3CC3)nc12 [Example 116]
< 200 nM	> 200 nM	C[C@]1(C(N)=O)COc2c1cc([C@@](O)(CNC(=O)c1cc(Cl)c3[nH]ncc3c1)C1CC1)nc2-c1cc(F)c(F)cc1F [Example 119]
< 200 nM	< 200 nM	COc1cc(C(=O)NC[C@](O)(c2cc3c(c(-c4ccnc(F)c4Cl)n2)OC[C@]3(C)C(N)=O)C2CC2)cc2cn(C3CC3)nc12 [Example 122]
< 200 nM	< 200 nM	COc1cc(C(=O)NC[C@](O)(c2cc3c(c(-c4cc(F)c(F)cc4F)n2)OC[C@]3(C)C(N)=O)C2CC(F)(F)C2)cc2cn(C3(F)CC3)nc12 [Example 123]
< 200 nM	< 200 nM	COc1cc(C(=O)NC[C@](O)(c2cc3c(c(-c4cc(F)c(F)cc4F)n2)OC[C@]3(C)C(N)=O)C2CC(F)(F)C2)cc2oc(C3CC3)nc12 [Example 124]
< 200 nM	> 200 nM	COc1cc(C(=O)NC[C@](O)(c2cc3c(c(-c4cc(F)c(F)cc4F)n2)OC[C@]3(C)C(N)=O)C2CC2)ccc1OC[C@@H](C)O [Example 125]
> 200 nM	> 200 nM	CNCC1([C@](O)(CNC(=O)c2cc(OC)c3nn(C4CC4)cc3c2)c2cc3c(c(-c4cc(Cl)c(F)cc4F)n2)OC[C@]3(C)C(N)=O)CC1 [Example 211]
< 200 nM	> 200 nM	COc1cc(C(=O)NC[C@](O)(c2cc3c(c(-c4cc(Cl)c(F)cc4F)n2)OC[C@]3(C)C(N)=O)C2(CF)CC2)cc2cn(C3CC3)nc12 [Example 212]
< 200 nM	> 200 nM	COc1cc(C(=O)NC[C@@](O)(CN(C)C)c2cc3c(c(-c4cc(Cl)c(F)cc4F)n2)OC[C@]3(C)C(N)=O)cc2cn(C3CC3)nc12 [Example 238]
< 200 nM	> 200 nM	COc1cc(C(=O)NCC(O)(CC2CC2)c2cc3c(c(-c4cc(Cl)c(F)cc4F)n2)OC[C@]3(C)C(N)=O)cc2cn(C3CC3)nc12 (some centres unmarked) [Example 239]
< 200 nM	> 200 nM	COc1cc(C(=O)NC[C@@](O)(CC#N)c2cc3c(c(-c4cc(Cl)c(F)cc4F)n2)OC[C@]3(C)C(N)=O)cc2cn(C3CC3)nc12 [Example 240]
< 200 nM	< 200 nM	C[C@]1(C(N)=O)COc2c1cc([C@@](O)(CNC(=O)c1ccc3nc(C4CC4)oc3c1)C1CC1)nc2-c1cc(C(F)(F)F)c(F)cc1F [Example 306]
< 200 nM	< 200 nM	COc1cc(C(=O)NC[C@](O)(c2cc3c(c(-c4cc(C(F)(F)F)c(F)cc4F)n2)OC[C@]3(C)C(N)=O)C2CC2)cc2cn(C3(F)CC3)nc12 [Example 309]

EC50 [1]	EC50 [2]	Structure (SMILES)
< 200 nM	< 200 nM	COc1cc(C(=O)NC[C@](O)(c2cc3c(c(-c4cc(C(F)(F)F)c(F)cc4F)n2)OC[C@]3(C)C(N)=O)C2CC2)cc2cn(C(F)F)nc12 [Example 310]
< 200 nM	< 200 nM	COc1cc(C(=O)NC[C@](O)(c2cc3c(c(-c4ccc(F)c(Cl)c4Cl)n2)OC[C@]3(C)C(N)=O)C2CC2)cc2oc(C3CC3)nc12 [Example 318]
< 200 nM	< 200 nM	C[C@]1(C(N)=O)COc2c1cc([C@@](O)(CNC(=O)c1ccc3nc(C4CC4)oc3c1)C1CC1)nc2-c1ccc(F)c(Cl)c1Cl [Example 319]
< 200 nM	< 200 nM	COc1cc(C(=O)NC[C@](O)(c2cc3c(c(-c4ccc(F)c(Cl)c4Cl)n2)OC[C@]3(C)C(N)=O)C2CC2)cc2cc(Cl)cnc12 [Example 320]
< 200 nM	< 200 nM	C[C@]1(C(N)=O)COc2c1cc([C@@](O)(CNC(=O)c1cc(OC3CC3)c3ncc(Cl)cc3c1)C1CC1)nc2-c1ccc(F)c(Cl)c1Cl [Example 321]
< 200 nM	< 200 nM	COc1cc(C(=O)NC[C@](O)(c2cc3c(c(-c4ccc(F)c(Cl)c4Cl)n2)OC[C@]3(C)C(N)=O)C2CC2)cc2cn(C3(F)CC3)nc12 [Example 322]
< 200 nM	< 200 nM	COc1cc(C(=O)NC[C@](O)(c2cc3c(c(-c4ccc(F)c(Cl)c4Cl)n2)OC[C@]3(C)C(N)=O)C2CC2)cc2cn(C(F)F)nc12 [Example 323]
< 200 nM	< 200 nM	COc1cc(C(=O)NC[C@](O)(c2cc3c(c(-c4ccc(F)c(Cl)c4Cl)n2)OC[C@]3(C)C(N)=O)C2CC2)cc2cc(C3CC3)nn12 [Example 324]
< 200 nM	< 200 nM	C[C@]1(C(N)=O)COc2c1cc([C@@](O)(CNC(=O)c1cc(OC3CC3)n3nc(C4CC4)cc3c1)C1CC1)nc2-c1ccc(F)c(Cl)c1Cl [Example 325]
< 200 nM	< 200 nM	COc1cc(C(=O)NC[C@](O)(c2cc3c(c(-c4cc(C(F)(F)F)c(F)cc4F)n2)OC[C@]3(C)C(N)=O)C2CC2)cc2cc(C3CC3)nn12 [Example 327]
< 200 nM	> 200 nM	COc1cc(C(=O)NC[C@@](O)(C#CC(C)(C)S(C)(=O)=O)c2cc3c(c(-c4cc(Cl)c(F)cc4F)n2)OC[C@]3(C)C(N)=O)cc2cn(C3CC3)nc12 [Example 341]
< 200 nM	< 200 nM	COc1cc(C(=O)NC[C@@](O)(c2ccccc2)c2cc3c(c(-c4ccnc(F)c4Cl)n2)OC[C@]3(C)C(N)=O)cc2cn(C3CC3)nc12 [Example 343]
< 200 nM	< 200 nM	COc1cc(C(=O)NC[C@@](O)(c2ccccc2)c2cc3c(c(-c4ccnc(F)c4Cl)n2)OC[C@]3(C)C(N)=O)cc2cn(C3(F)CC3)nc12 [Example 344]
< 200 nM	< 200 nM	COc1cc(C(=O)NC[C@@](O)(c2ccccc2)c2cc3c(c(-c4ccnc(F)c4Cl)n2)OC[C@]3(C)C(N)=O)cc2oc(C3CC3)nc12 [Example 345]
< 200 nM	< 200 nM	COc1cc(C(=O)NC[C@@](O)(c2ccccc2)c2cc3c(c(-c4ccnc(F)c4Cl)n2)OC[C@]3(C)C(N)=O)cc2cc(Cl)cnc12 [Example 346]
< 200 nM		COc1cc(C(=O)NC[C@](O)(c2cc3c(c(-n4ccc5ccc(F)cc54)n2)OC[C@]3(C)C(N)=O)C(F)(F)F)cc2cn(C3CC3)nc12 [Example 853]
< 200 nM		COc1cc(C(=O)NC[C@](O)(c2cc3c(c(-n4ccc5cccc(F)c54)n2)OC[C@]3(C)C(N)=O)C(F)(F)F)cc2cn(C3CC3)nc12 [Example 854]
< 200 nM		COc1cc(C(=O)NC[C@](O)(c2cc3c(c(-n4ccc5c6c(ccc54)OC(F)(F)O6)n2)OC[C@]3(C)C(N)=O)C2CC2)cc2cn(C3CC3)nc12 [Example 855]
< 200 nM		COc1cc(C(=O)NC[C@@](O)(c2ccnc(N(C)C)c2)c2cc3c(c(-c4cc(Cl)c(F)cc4F)n2)OC[C@]3(C)C(N)=O)cc2cn(C3CC3)nc12 [Example 884]
